“Also recorded” adds a separate entry of the source.
Columns and labels:
[1] = test system: dogs with spontaneous ABC-like DLBCL; assay: Phase I 3+3 dose escalation: adverse events and toxicity (VCOG-CTCAE); assay type: in vivo, dog
Source text: The clinical trial protocol was fully approved by the University of Pennsylvania's Institutional Animal Care and Use Committee (Privately Owned Animal Protocol number: 803765). Only dogs with full written informed owner consent were eligible for enrollment. […] The histopathological diagnosis of DLBCL and cytological confirmation of large B cell lymphoma were made by board certified veterinary pathologists (M.G., and A.D., see acknowledgements) and by a board certified clinical pathologist (R.P.) respectively. Only dogs with DLBCL and constitutive NF-κB activity within their malignant lymph nodes as determined by the presence of phospho-IKK, phospho-IκBα and phospho-p65 were eligible to receive NBD peptide.
(§1) Tumor burden was calculated by measuring three dimensions (length, width and height) for each malignant lymph node. The mass of each node was calculated as previously described and the sum of measured lymph node mass was considered as total tumor mass. Response to NBD peptide was evaluated according to the Veterinary Cooperative Oncology Group criteria for assessment of response in peripheral nodal lymphoma, adapted for use in dogs from the published RECIST criteria. The Veterinary Cooperative Oncology Group Common Terminology for Adverse Events, version 1.0 was used to grade adverse events.

[2] = test system: constitutive canonical NF-κB signaling (phospho-IKKα/β:IKKβ); assay: Immunoblot and densitometry of phospho-IKK in malignant lymph node biopsies, pre and 24 h post peptide; assay type: in vivo, dog; conditions: malignant lymph node biopsy 24 hours after single 1 h i.v. infusion, 0.5-2 mg/kg, vs pre-treatment; paired samples from ten of eleven dogs
Experimental: Lymph node biopsy samples were mechanically dissociated in RPMI and red blood cells were removed using ACK lysis buffer (Gibco) according to manufacturer's instructions. Cells were lysed in 50 mM Tris-HCL containing 1% NP-40, 150 mM NaCl, 2.5 mM EDTA, 5% glycerol, a 1∶50 dilution of Protease Inhibitor Cocktail and 1∶50 dilutions of Phosphatase Inhibitor Cocktails 2 and 3 (Sigma-Aldrich, Saint Louis, MO). Samples were centrifuged and protein concentrations were determined by micro BCA assay (Thermo Scientific, Rockford, IL). Proteins from whole cell extracts were separated by SDS-PAGE (10%) followed by transfer to PVDF membrane. Membranes were probed with polyclonal rabbit anti-human antibodies against phospho-IKKα/β (16A6), IKKβ (L570), phospho-IκBα (14D4), mouse anti-human IκBα (L35A5) and β-actin (4967) (Cell Signaling, Danvers, MA). An HRP-conjugated donkey anti-rabbit or anti-mouse IgG was used as the secondary detection antibody (Amersham, Piscataway, NJ). Blots were developed using ECL Plus (Amersham, Piscataway, NJ). Densitometry was performed using ImageJ software and integrated density values for each band were obtained using the Analyze Particles function.

[3] = Hematological and biochemical parameters before and one week after treatment; assay type: in vivo, dog
Experimental: In this phase I dose escalation clinical trial, both treatment-naïve and relapsed dogs were enrolled. NBD peptide was administered according to a standard 3+3 trial design. […] Peptide was reconstituted to 50 mM in sterile DMSO and diluted in 20 mls of lactated Ringers solution immediately prior to intravenous administration at a constant rate of 20 ml/hr. […] Following the post-treatment biopsy, dogs received induction or rescue chemotherapy as determined by their primary attending veterinary oncologist and a short course of prophylactic antibiotics (amoxicillin). All dogs received a follow-up full clinical examination, CBC, CS and urinalysis one week post NBD peptide.

[4] = test system: Ki67; assay: Ki67 immunohistochemistry of malignant lymph node biopsies; assay type: in vivo, dog; conditions: 24 hours post peptide vs pre; 10 high power fields
Experimental: (§2) Immunohistochemical analysis was performed on 5 micron sections of formalin fixed paraffin embedded lymph node tissue from dogs with spontaneous DLBCL using a DAKO automatic universal staining system. Sections were heated in a 60°C oven for 1 hour, depararaffinized in PRO PAR clearant and rehydrated in progressively decreasing grades of ethanol. Antigen retrieval was performed by boiling sections in sodium citrate buffer, pH ∼9.0 for 15 minutes. Endogenous peroxidase was blocked with 3% hydrogen peroxide. For Ki67 staining, a 1∶50 dilution of a monoclonal mouse anti-human antibody (Clone MIB-1, DAKO) was used and immunodetection was performed using a biotinylated goat anti-rabbit/anti-mouse immunoglobulin and SA-HRP (LSAB2 kit, DAKO, Carpinteria, CA). For IRF-4 staining, a 1∶200 dilution of a polyclonal mouse anti human antibody (DAKO, M7259) was used and immunodetection was performed using a peroxidase polymer conjugated anti-mouse secondary antibody system (ImmPRESS Anti-mouse Ig peroxidase polymer detection kit). In all cases, antibody binding was detected using 3,3′-diaminobenzidine solution and tissues were counterstained with hematoxylin. Slides were viewed using a Nikon E600 infinity corrected upright microscope. […] Apoptotic cells were detected using the cell death detection kit (Roche, Indianapolis, IA) following the manufacturer's instructions. […]

[5] = test system: Cyclin D1; assay: qRT-PCR of Cyclin D1 in malignant lymph node biopsies; assay type: in vivo, dog; conditions: 24 hour post-peptide biopsy normalized to pre-treatment; β-actin control, triplicate
Experimental: (§3) Lymph node biopsies were immediately placed in RNAlater (Ambion, Austin, TX) and stored at –80°C prior to RNA extraction. Total RNA extraction was performed using the RNeasy Mini Kit (Qiagen, Valencia, CA). Reverse transcription was performed using random hexamers and Superscript II reverse transcriptase (Invitrogen Corp., Carlsbad. CA, USA) according to the manufacturer's instructions. Primer sequences for canine A1, A20, Bcl-XL, c-FLIP, Cyclin D1, Bcl-2, XIAP and β-actin have been previously described, [35]. Primers were synthesized by Invitrogen Corp. Real-time PCR assays were performed using SYBR Green (Fermentas, Glen Burnie, Maryland). Samples were run in triplicate using standard conditions on an ABI 7500 sequence detector (Applied Biosystems, Carlsbad, CA) and data were analyzed using β-actin as an endogenous control. Dissociation curves were performed after each experiment to confirm the specificity of product amplification. Statistical analysis was performed using a two-tailed Student's ‘t’ test where statistical significance = p<0.05.

[6] = test system: NF-κB target genes (A1, c-FLIP, XIAP, Bcl-XL, Bcl-2 and A20); assay: qRT-PCR of pro-survival NF-κB target genes in malignant lymph nodes; assay type: in vivo, dog
Experimental: as §3

[7] = test system: malignant lymph nodes; assay: TUNEL staining of malignant lymph node biopsies; assay type: in vivo, dog; conditions: 24 hours post peptide vs pre; tissue available from 9 dogs
Experimental: as §2

[8] = test system: malignant lymph nodes; assay: Measureable tumor mass before and 24 h after peptide; assay type: in vivo, dog; conditions: 24 hours after NBD peptide; measurements available for 10 treated dogs
Experimental: as §1

[9] = test system: dogs with spontaneous ABC-like DLBCL; assay: Clinical response and survival after NBD peptide plus chemotherapy; assay type: in vivo, dog
Experimental: as §1

[10] = test system: malignant node; conditions: local, intranodal administration; cited from earlier work
Source text: (§4) Pet dogs that develop Non-Hodgkins Lymphoma (NHL) are recognized as a clinically relevant, spontaneous large animal model of the human disease, [27]–[31]. […] Furthermore, tissue microarrays from lymphomatous canine tissue confirmed the presence of constitutive NF-κB activity and pharmacological inhibition of IKK leads to in ...

[11] = test system: primary malignant canine B cells; conditions: in vitro, cited from earlier work
Source text: as §4

[12] = test system: rats, mice and piglets; conditions: doses ranging from 0.75 mg/kg to 20 mg/kg; cited from earlier work
Source text: In this study, as a consequence of dru ...

[13] = Plasma pharmacokinetics after intravenous infusion (mass spectrometry)
Experimental: In this phase I dose escalation clinical trial, both treatment-naïve and relapsed dogs were enrolled. NBD peptide was administered according to a standard 3+3 trial design. The dose endpoint was the dose at which canonical NF-κB signaling was inhibited within malignant lymph nodes. Peptide was reconstituted to 50 mM in sterile DMSO and diluted in 20 mls of lactated Ringers solution immediately prior to intravenous administration at a constant rate of 20 ml/hr. Twenty-four hours post NBD peptide administration, excisional or Tru-cut biopsies of a peripheral malignant lymph node were taken for Western blot, qRT-PCR and histopathological analysis.
EDTA anti-coagulated blood samples were taken at 0, 30, 60, 90, 120, 240, 360 mins and 24 hours post infusion. Plasma was separated by centrifugation and stored at −80°C prior to pharmacokinetic analysis. Mass spectrometer analysis of NBD peptide in plasma samples was performed by Frontage Laboratories, Exton, PA and pharmacokinetic (PK) parameters were determined using WinNonlin v5.2 software. The lower limit of quantification (LLOQ) was set to 10 ng/ml however, in some instances the LLOQ was changed to 20 ng/ml because of potential interference in the samples.

[14] = one week after NBD peptide plus induction or rescue chemotherapy

With “NEMO Binding Domain (NBD) peptide [NBD peptide]” the “acute or chronic toxicities at any dose evaluated” value ([1]; 0.5-2.0 mg/kg single i.v. dose, clinical, hematological and biochemical parameters) was “no significant acute or chronic toxicities”, the “safety of intravenous administration” value ([1]; <2 mg/kg i.v.) was “safe” and the “dogs that became drowsy and developed moderate tachycardia and hypertension during infusion” value ([1]; Group 1, 0.5 mg/kg i.v., three dogs, no premedication, mild, transient, resolved when infusion was discontinued) was “two”. The “additional dogs with transient hypertension” value ([1]; Group 2, 1 mg/kg i.v., premedicated with ondansetron and diphenhydramine) was “one”, the “maximum tolerated dose of NBD peptide in dogs” value ([1]; doses 0.5-2.0 mg/kg i.v.) was “not reached” and the “dogs showing reductions in the phosphorylation status of IKK (pIKK:IKK)” value [2] was 6/10 and Six out of ten. The “dogs with significant but asymptomatic increases in liver values (ALT, ALKP, AST and GGT) one week later” value ([3]; Group 2, 1 mg/kg, dog also received L'asparaginase 24 hrs after peptide, values returned to baseline two weeks later) was “One”, the “dogs with elevated ALKP prior to peptide that showed further increases in ALKP post treatment” value ([3]; all previously treated for relapsed lymphoma, one week after NBD peptide plus chemotherapy) was 4/11 and the “dogs with an increase in platelet count” value [3, 14] was 8/11. The “dogs with mild decreases in lymphocyte counts” value [3, 14] was 9/11, the “dogs with mild decreases in hematocrit” value ([3]; one week after NBD peptide plus induction or rescue chemotherapy, most values within the normal range) was 9/11 and the “dogs with a statistically significant reduction in the number of Ki67+ cells” value [4] was “Four”. For the same substance, the “dogs with a decrease in the expression of Cyclin D1” value [5] was “Eight out of eleven”, the “inhibition of NF-κB target genes in the one dog that received 2 mg/kg (dog 11)” value ([6]; 2 mg/kg i.v., 24 hours after peptide, compared with the other dogs) was “most significant inhibition” and the “dogs in which the expression of 3 or more target genes was reduced” value ([6]; 24 hours after NBD peptide, six genes evaluated) was 6 out of 11. For the same substance, the “dogs with a trend towards an increase in apoptosis (TUNEL)” value [7] was “Five”, the “dogs with greater than 20% reduction in measureable tumor mass” value [8] was “Five out of 10” and the “dogs that achieved clinical remission (CR)” value ([9]; NBD peptide plus chemotherapy, eleven dogs, including 5 dogs treated at first relapse) was “Seven”. The “dogs that survived greater than 16 months” value ([9]; after peptide administration and chemotherapy) was “three”, the “effect on tumor burden” value [10] was “decreases tumor burden” and the “effect on cell survival” value ([11]; NBD peptide fused to AntP) was “rapid apoptosis”. The “effect on phosphorylation of IKK and IκBα” value ([11]; NBD peptide fused to the cell penetrating Antennapedia peptide (AntP)) was “inhibits phosphorylation”, the “tolerability of systemic administration” value [12] was “well tolerated” and the “plasma concentrations of NBD peptide at the doses studied” value ([13]; 0.5-2.0 mg/kg i.v.) was “very low”. The “NBD peptide in plasma after 60 mins” value ([13]; any dog, sampling up to 24 hours post infusion, LLOQ 10 or 20 ng/ml) was “not detected; also recorded: undetectable”.

From article PMC4010398, “A Phase I Clinical Trial of Systemically Delivered NEMO Binding Domain Peptide in Dogs with Spontaneous Activated B-Cell like Diffuse Large B-Cell Lymphoma” (PLoS ONE, 2014)
